The results in this text go back to PubChem BioAssay (NCI).

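Where inhibition never reached the appropriate level, the endpoint shown equals the highest concentration tested. Otherwise, values were interpolated linearly from a five-concentration, 48-hour dose response in 96-well plates. At the GI50, growth is halved. TGI denotes the concentration required for complete inhibition of growth.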 Some results are limits rather than exact numbers.

Among the test systems are 786-0 renal; DU-145 prostate; IGROV1 ovarian; K-562 leukemia; LOX IMVI melanoma; RPMI-8226 leukemia; RXF 393 renal; SNB-19 CNS; U251 CNS; TK-10 renal.
Common to all, as to test: DTP human tumour cell line panel, 48 h

`Cc1cccc2c1C(=O)[C@@](C)([C@]1(C)Nc3cccc(C)c3C1=O)N2`: the TGI with 786-0 renal, in the test with DU-145 prostate, in the test with IGROV1 ovarian, with K-562 leukemia, in the test on LOX IMVI melanoma and in the test with RPMI-8226 leukemia was over 100 µM each time. The TGI in the test on RXF 393 renal, with SNB-19 CNS and with U251 CNS was over 100 µM throughout.

In the case of `c1ccc(CNc2ncnc3n[nH]nc23)cc1`, the TGI in the test with 786-0 renal, in the test on DU-145 prostate, in the test on IGROV1 ovarian, in the test on K-562 leukemia, with LOX IMVI melanoma and in the test with RXF 393 renal was over 100 µM each time. Also, the TGI in the test on SNB-19 CNS, in the test with TK-10 renal and with U251 CNS was over 100 µM in each case.

Take `CN(C)c1ccc(/C=C2\C[C@H]3[C@@H]4CCc5cc(O)ccc5[C@H]4CC[C@]3(C)C2=O)cc1`: the TGI with DU-145 prostate, with IGROV1 ovarian, with K-562 leukemia, in the test with LOX IMVI melanoma, with RPMI-8226 leukemia and with RXF 393 renal was over 100 µM throughout. Also, the total growth inhibition concentration (TGI) in the test with SNB-19 CNS, with TK-10 renal and in the test with U251 CNS was over 100 µM each time.

As for `CCOC(=O)c1c(-c2ccc(OC)c(O)c2)c(C#N)c(=S)n(C2OC(CO)C(O)C(O)C2O)c1-c1ccccc1` (stereo unspecified), the TGI with 786-0 renal, with DU-145 prostate, with IGROV1 ovarian, in the test with K-562 leukemia, in the test on LOX IMVI melanoma and in the test with RPMI-8226 leukemia was over 100 µM throughout. Moreover, the TGI in the test on RXF 393 renal, with SNB-19 CNS and in the test with U251 CNS was over 100 µM throughout.

On to `Cc1ccc(S(=O)(=O)N2CCN(CCO)CCN(S(=O)(=O)c3ccc(C)cc3)CCN(CCO)CC2)cc1`, for which the concentration for total growth inhibition (TGI) (in general, the concentration at which net growth stops) in the test with 786-0 renal is 67 µM; in the test with DU-145 prostate, 34.8 µM; with IGROV1 ovarian, over 100 µM; with K-562 leukemia it was 35.3 µM; in the test on LOX IMVI melanoma, 28.4 µM; with RXF 393 renal, 82.1 µM. Moreover, the TGI with SNB-19 CNS was over 100 µM; with TK-10 renal, over 100 µM; in the test on U251 CNS it was 72.3 µM.

For `Cc1nnc(CC#N)n1NC(=O)CC#N`, the TGI in the test with 786-0 renal, in the test on DU-145 prostate, with IGROV1 ovarian, in the test on K-562 leukemia, in the test on LOX IMVI melanoma and in the test with RXF 393 renal was over 100 µM throughout. The TGI in the test on SNB-19 CNS, with TK-10 renal and in the test with U251 CNS was over 100 µM throughout.

With `COc1ccccc1N1C(=O)/C(=C\c2cccc(Oc3ccccc3)c2)S(=O)(=O)C1c1ccccc1` (stereo unspecified), the TGI in the test with 786-0 renal, with DU-145 prostate, in the test on K-562 leukemia, in the test with LOX IMVI melanoma, in the test with RXF 393 renal and in the test with SNB-19 CNS was over 100 µM each time. Further, the TGI with TK-10 renal and in the test with U251 CNS was over 100 µM each time.

For the molecule `CC1(C)O[C@@H](CP(c2cccc3ccccc23)c2cccc3ccccc23)[C@H](CP(c2cccc3ccccc23)c2cccc3ccccc23)O1`, the concentration for total growth inhibition (TGI) in the test with 786-0 renal, in the test with DU-145 prostate, in the test with IGROV1 ovarian, with K-562 leukemia, in the test with LOX IMVI melanoma and in the test with RXF 393 renal was over 100 µM each time. In addition, the TGI with SNB-19 CNS, with TK-10 renal and in the test on U251 CNS was over 100 µM throughout.

For the molecule `COC(=O)[C@@H]1O[C@]12[C@@H](CO[Si](C)(C)C(C)(C)C)O[C@@H](n1cc(C)c(=O)[nH]c1=O)[C@@H]2O[Si](C)(C)C(C)(C)C`, the TGI with DU-145 prostate amounted to 39 µM; with IGROV1 ovarian, 21.6 µM; in the test with K-562 leukemia, 40.2 µM; in the test on LOX IMVI melanoma it was 10.2 µM; with RXF 393 renal it was 22.7 µM; in the test with SNB-19 CNS, 26 µM. Moreover, the values for the TGI in the test on TK-10 renal and in the test on U251 CNS were over 100 µM and 24.7 µM, respectively.

In the case of `Cc1ccc2cnc(N)c(C#Cc3cncc(C(=O)Nc4ccc(CN5CCN(C)CC5)c(C(F)(F)F)c4)c3)c2c1`, the GI50 (in general, the concentration giving 50% growth inhibition) was 0.387 µM in the test on DU-145 prostate; 0.231 µM with IGROV1 ovarian; 0.005 µM with K-562 leukemia; 0.289 µM in the test on LOX IMVI melanoma; 0.693 µM in the test on RPMI-8226 leukemia; 0.632 µM with RXF 393 renal. In addition, the GI50 with SNB-19 CNS is 0.786 µM; in the test with TK-10 renal, 0.642 µM; in the test with U251 CNS it was 0.59 µM. For the same molecule, the concentration for total growth inhibition (TGI) with DU-145 prostate was found to be 1.03 µM; in the test on IGROV1 ovarian, 0.869 µM; with K-562 leukemia, 0.619 µM; with LOX IMVI melanoma, 0.934 µM; with RPMI-8226 leukemia it was 1.97 µM; with RXF 393 renal, 1.29 µM. The values for the concentration for total growth inhibition (TGI) in the test with SNB-19 CNS, in the test on TK-10 renal and in the test on U251 CNS were 1.46 µM, 1.29 µM and 1.21 µM, respectively.

`Cc1cccc(C(O)c2cccnc2)c1O` (stereo unspecified): the TGI in the test on DU-145 prostate, in the test on IGROV1 ovarian, in the test with K-562 leukemia, with LOX IMVI melanoma, in the test on RPMI-8226 leukemia and with RXF 393 renal was over 100 µM each time. For the same molecule, the TGI in the test on SNB-19 CNS, with TK-10 renal and in the test on U251 CNS was over 100 µM each time.
